Measurements published in US10322132B2, “Prevention or treatment of uratic or gouty diseases” (SHANTON PHARMA CO., LTD., priority 2015, dated 2019).

Tests used:
[1] = system: MSU-induced gouty arthritis; assay: MSU-induced gouty arthritis, toe volume; format: in vivo, Male Wistar rats; conditions: for effect on increase of the toe volumes in the test rats (in words): compared with the model group; for Toe volume change / Inhibition of toe volume change (%): 9 h after MSU; for Inhibition of toe volume change (%): vs model group
Procedure: The experiment was done by reference to Hsin-Pai Lee, Shi-Ying Huang, Yen-You Lin. Soft Coral-Derived Lemnalol Alleviates Monosodium Urate-Induced Gouty Arthritis in Rats by Inhibiting Leukocyte Infiltration and iNOS, COX-2 and c-Fos Protein Expression. […] 2013, 11, 99-113.
One gram of uric acid was weighed, introduced into 200 mL of boiling water and heated. Then, NaOH (2 mol/L) was added until pH reached 9. The solution became clear, and was cooled at room temperature and then left still overnight. MSU was obtained after filtration, which was dried at 60° C. for 24 h and then sterilized at a high temperature of 180° C.
(§1) The toe volumes of the rats were measured one day prior to the experiment. The rats were administered with the solvent by subcutaneous injection in the model group at a dose of 5 mL/kg, while the rats were administered with test samples by subcutaneous injection in administration groups at a dose of 5 mg/kg. Rats were anesthetized immediately after administration and were injected with 0.09 mL of MSU suspension into the joint cavity of the left ankle. The volume of the left toe was measured in rats 9 h after the injection of MSU into the ankle joint cavity.
as §1, with “dose of 15 mL/kg, while” for “dose of 5 mL/kg, while”, “dose of 15 mg/kg or 10 mg/kg. Rats” for “dose of 5 mg/kg. Rats”
The toe volumes of rats were measured one day prior to the experiment. The rats were administered with the solvent by subcutaneous injection in the model group at a dose of 15 mL/kg, while the rats were administered with the test sample by subcutaneous injection in administration group at a dose of 15 mg/kg. Rats were anesthetized immediately after administration and were injected with 0.09 mL of MSU suspension into the joint cavity of the left ankle. The volume of the left toe in each rat was measured 9 h after the injection of MSU into the ankle joint cavity.

[2] = system: MSU-induced gouty arthritis; assay: Pain value in rats with gouty arthritis (electronic Von Frey pain threshold detector); format: in vivo, Male Wistar rats; conditions: for Pain value: Example 5, 15 mg/kg subcutaneous, left foot, Von Frey; for effect on pain values in the test rats (in words): Example 5, compared with the model group
Procedure: The rats with gouty arthritis were placed in a metabolic cage, and the palm center of the left foot of each rat was irritated with an electronic Von Frey pain threshold detector. The maximum stress value was recorded when each rat withdrew its foot, and the value was the pain value of that rat.

[3] = Pharmacokinetics experiment in cynomolgus monkeys, intravenous; format: in vivo, cynomolgus monkeys (Macaca fascicularis); conditions: 5 mg/kg, Mean ± SD, n = 3
Procedure: Three non-naïve cynomolgus monkeys were administered with test compounds A, B and D at a dose of 5 mg/kg by intravenous injection and with test compound C at a dose of 3 mg/kg by intravenous injection, with one compound being tested at a time. Blood was collected from the vein before administration and 1 h, 3 h, 6 h and 24 h after administration, and plasma was isolated. The plasma was analyzed by a 4000 Q Trap LC-MS/MS instrument. The concentrations of the test samples were output by Analyst 1.6.1 from AB Company. The parameters ( ) such as the mean, standard deviation, and coefficient of variation were calculated using Microsoft Excel, wherein the values directly output by Analyst 1.6.1 requires no calculation. PK parameters were calculated using Pharsight Phoenix 6.2 software (NCA model).

IFNγ = assay: ConA-induced IFNγ release; format: in vivo, Male C57BL/6 mice; conditions: for inhibition (%): IFN-γ in serum vs model group, 20 mg/kg subcutaneous; for effect on content of IFNγ in the serum of the test mice (in words): compared with the model group; for Content of IFN-γ: serum, 20 mg/kg subcutaneous 30 min before ConA 15 mg/kg tail vein, 3 h after ConA
Procedure: The experiment was conducted by reference to Dalya R. Soondl, Elisa Bjørgo, etc. PI3K p110δ regulates T cell cytokine production during primary and secondary immune responses in mice and humans. Blood. Author manuscript; available in PMC 2013 Mar. 11; and Gabriele Sass, Sonja Heinlein, etc. CYTOKINE EXPRESSION IN THREE MOUSE MODELS OF EXPERIMENTAL HEPATITIS. CYTOKINE, Vol. 19, No. 3 (7 Aug.), 2002: pp 115-120.
The C57BL/6 mice were raised in the SPF-grade animal room for 1 week, and were then randomly divided into the corresponding model group and the administration groups according to the body weight. The […] were administered with ConA by the tail vein injection at a dose of 15 mg/kg 30 min after the administration of the solvent or the test samples by subcutaneous injection at a dose of 20 mg/kg. After the mice were anesthetized with sodium pentobarbital (45 mg/kg by intraperitoneal injection) 3 h after administration of ConA, the blood was collected by cardiac puncture. The blood was placed in the centrifuge tube without anticoagulant and left still at room temperature. One hour later, the blood was centrifuged. The serum was extracted and stored at −80° C. The content of IFNγ (γ-interferon) in the serum was detected by a Mouse IFNγ Elisa

[4] = biological target: T1, human urate transporter 1 (hURAT1) (Homo sapiens, UniProt Q96S37); assay: Uptake of 14C-labeled uric acid in hURAT1 transfected cells; format: cell-based; conditions: 14C uric acid uptake, hURAT1-transfected HEK-293T cells, 5 min at 37° C.; read-out: IC50 (μM), inhibition of hURAT1 activity
T1 construct: expressed in transfected cells; host or cells: HEK-293T
T1 sequence (Q96S37 1-553): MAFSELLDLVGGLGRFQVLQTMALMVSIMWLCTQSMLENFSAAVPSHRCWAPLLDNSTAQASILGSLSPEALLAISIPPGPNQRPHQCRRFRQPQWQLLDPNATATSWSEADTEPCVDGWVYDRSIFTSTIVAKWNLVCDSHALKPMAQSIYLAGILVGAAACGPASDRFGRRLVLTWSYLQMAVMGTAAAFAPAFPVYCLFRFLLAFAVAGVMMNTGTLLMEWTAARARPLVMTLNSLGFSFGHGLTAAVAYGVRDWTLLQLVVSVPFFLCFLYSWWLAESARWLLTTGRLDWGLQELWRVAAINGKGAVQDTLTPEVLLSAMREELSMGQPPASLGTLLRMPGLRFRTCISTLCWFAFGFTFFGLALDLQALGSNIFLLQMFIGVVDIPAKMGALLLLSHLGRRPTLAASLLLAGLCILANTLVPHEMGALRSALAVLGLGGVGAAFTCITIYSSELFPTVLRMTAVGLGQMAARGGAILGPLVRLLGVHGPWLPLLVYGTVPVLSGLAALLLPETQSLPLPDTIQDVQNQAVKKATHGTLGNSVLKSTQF
Procedure: The compounds were prepared into the stock solutions (5 mM) with dimethyl sulfoxide (DMSO). This experiment involved 8 concentrations in total. The final concentrations were 5000 nM, 1250 nM, 312.5 nM, 78.1 nM, 19.5 nM, 4.9 nM, 1.2 nM and 0.3 nM, respectively.
Preparation of buffers: chlorine-free HBSS buffer (125 mM sodium gluconate, 4.8 mM potassium gluconate, 1.3 mM calcium gluconate, 1.2 mM KH2PO4, 1.2 mM MgSO4, 5.6 mM glucose, 25 mM 4-hydroxyethylpiperazine ethanesulfonic acid (HEPES) (pH 7.4)); lysis buffer (100 mM NaOH)
Transfected cells stably expressing human urate transporter 1 (hURAT1) were obtained by: placing human embryonic kidney cells (HEK-293T) in a cell culture plate containing complete medium, incubating the cells for 24 h at 37° C. in 5% CO2, rinsing the cells with phosphate buffered saline (PBS) followed by trypsin digestion to prepare a suspension containing single cells; placing 8×10^6 cells a cell culture plate, adding dropwise TransIT-293 Reagent:DNA complexes (1.5 ml of Opti-MEM I Reduced-Serum Medium, 15 g of plasmid DNA, and 45 μL of TransIT-293 Reagent were mixed uniformly and then incubated at room temperature for 30 min) to different areas of the cell culture plate, gently shaking the cell culture plate to homogeneously distribute the TransIT-293 Reagent:DNA complexes, and incubating the cells for 48 h at 37° C. in 5% CO2.
Uptake of ^14C-labeled uric acid in hURAT1 transfected cells: (1) hURAT1-transfected cells were placed in a Poly-D-lysine 96-well microplate at a cell density of 6×10^4/well, and left still overnight at 37° C. in 5% CO2; (2) after the cells were placed in the Poly-D-lysine 96-well microplate for 12 h, the cells were washed for 3 times with 200 μl of pre-heated chlorine-free HBSS buffer per well, and the washing solution in the microplate was removed; (3) 50 μl of uric acid-containing [8-14C] […]

[5] = Example 5, 15 mg/kg or 10 mg/kg
[6] = Example 5, 15 mg/kg subcutaneous

CCCCCn1c(=O)n(C)c(=O)c2[nH]c(Cl)nc21 [Compound D, 8-chloro-1-methyl-3-pentyl-3,7-dihydro-1H-purine-2,6-dione]
effect on increase of the toe volumes in the test rats (in words) [1, 5]: significantly inhibit
Toe volume change [1, 6]: 0.232 mL
Inhibition of toe volume change (%) [1, 6]: 42.6%
Pain value [2]: 43.10 g
effect on pain values in the test rats (in words) [2]: significantly increase
t1/2z [3]: 5.90 ± 0.42 h
inhibition (%) (IFNγ): 35.8%
effect on content of IFNγ in the serum of the test mice (in words) (IFNγ): significantly reduce
Content of IFN-γ (IFNγ): 2108 pg/mL
IC50 [4]: 0.87 µM

CCCCCn1c(=O)[nH]c(=O)c2[nH]c(Cl)nc21 [Compound A, 8-chloro-3-pentyl-3,7-dihydro-1H-purine-2,6-dione]
Change of toe volume ([1]; Example 4, 5 mg/kg subcutaneous, 9 h after MSU injection into left ankle joint cavity): 0.416 mL
Inhibition of toe volume change (%) ([1]; Example 4, 5 mg/kg subcutaneous): 17.5%
effect on increase of the toe volumes in the test rats (in words) ([1]; Example 4, 5 mg/kg): significantly inhibit
effect on increase of the toe volumes in the test rats (in words) [1, 5]: significantly inhibit
Toe volume change [1, 6]: 0.264 mL
Inhibition of toe volume change (%) [1, 6]: 34.7%
Pain value [2]: 47.51 g
effect on pain values in the test rats (in words) [2]: significantly increase
t1/2z [3]: 14.55 ± 6.69 h
inhibition (%) (IFNγ): 38.3%
effect on content of IFNγ in the serum of the test mice (in words) (IFNγ): significantly reduce
Content of IFN-γ (IFNγ): 2025 pg/mL
IC50 [4]: 2.52 µM
